In patent US20230263822A1, “MODULATION OF FACTOR 11 EXPRESSION” (Ionis Pharmaceuticals, Inc., priority 2008, published 2023):

Experiment: Hematology assays in cynomolgus monkeys (Example 45)
Assay type: in vivo
Settings: for MCH / MCHC / MCV / RBC count / WBC count / hematocrit / hemoglobin: escalating dose regimen
Experimental: Groups, each consisting of two male and three female monkeys, were injected subcutaneously with ISIS 416838, ISIS 416850, ISIS 416858, ISIS 416864, or ISIS 417002 in escalating doses. Antisense oligonucleotide was administered to the monkeys at 5 mg/kg three times per a week for week 1; 5 mg/kg twice per week for weeks 2 and 3; 10 mg/kg three times per week for week 4; 10 mg/kg twice per week for weeks 5 and 6; 25 mg/kg three times per week for week 7; and 25 mg/kg twice per week for weeks 8, 9, 10, 11, and 12. One control group, consisting of two male and three female monkeys, was injected subcutaneously with PBS according to the same dosing regimen. An additional experimental group, consisting of two male and three female monkeys, was injected subcutaneously with ISIS 416850 in a chronic, lower dose regimen. Antisense oligonucleotide was administered to the monkeys at 5 mg/kg three times per week for week 1; 5 mg/kg twice per week for week 2 and 3; 10 mg/kg three times per week for week 4; and 10 mg/kg twice per week for weeks 5 to 12. Body weights were measured weekly. Blood samples were collected 14 days and 5 days before the start of treatment and subsequently once per week for Factor 11 protein activity analysis in plasma, fibrinogen measurement, PT and aPTT measurements, bleeding times, and measurement of various hematologic factors. On day 85, the monkeys were euthanized by exsanguination while under deep anesthesia, and organs harvested for further analysis.
The ISIS oligonucleotide, ISIS 416850, given with the chronic dose regimen is distinguished from the other oligonucleotides with an asterisk (*).

ISIS 416838: MOE gapmer, nucleobases 1018 to 1042 of SEQ ID NO: 1 (Table 6) (antisense GCAACCGGGATGATGAGTGC; MOE gapmer, wing and gap sizes not given here)
MCH (Day 64): 23 pg | MCH (Day 71): 23 pg | MCH (Day 78): 23 pg | MCH (Day 85): 23 pg | basophils (day 8): 0.2% | eosinophils (day 8): 0.4% | lymphocytes (day 8): 54% | monocytes (day 8): 2.5% | neutrophils (day 8): 42% | platelet count (day 8): 387000 µL⁻¹ | reticulocytes (day 8): 1.2% | MCH (day 8): 23 pg | MCHC (day 8): 30 g/dL | MCV (day 8): 77 fL | RBC count (day 8): 5.7e+06 µL⁻¹ | WBC count (day 8): 10000 µL⁻¹ | hematocrit (day 8): 43% | hemoglobin (day 8): 12.9 g/dL | basophils (day 15): 0.3% | eosinophils (day 15): 0.3% | lymphocytes (day 15): 53% | monocytes (day 15): 2.4% | neutrophils (day 15): 43% | platelet count (day 15): 387000 µL⁻¹ | reticulocytes (day 15): 1.2% | MCH (day 15): 23 pg | MCHC (day 15): 31 g/dL | MCV (day 15): 75 fL | RBC count (day 15): 5.6e+06 µL⁻¹ | WBC count (day 15): 10000 µL⁻¹ | hematocrit (day 15): 42% | hemoglobin (day 15): 12.9 g/dL | basophils (day 22): 0.2% | eosinophils (day 22): 0.5% | lymphocytes (day 22): 59% | monocytes (day 22): 2.9% | neutrophils (day 22): 37% | platelet count (day 22): 319000 µL⁻¹ | reticulocytes (day 22): 1.2% | MCH (day 22): 23 pg | MCHC (day 22): 29 g/dL | MCV (day 22): 80 fL | RBC count (day 22): 5.4e+06 µL⁻¹ | WBC count (day 22): 11000 µL⁻¹ | hematocrit (day 22): 43% | hemoglobin (day 22): 12.5 g/dL | basophils (day 29): 0.2% | eosinophils (day 29): 0.3% | lymphocytes (day 29): 59% | monocytes (day 29): 3.2% | neutrophils (day 29): 36% | platelet count (day 29): 337000 µL⁻¹ | reticulocytes (day 29): 1.6% | MCH (day 29): 23 pg | MCHC (day 29): 29 g/dL | MCV (day 29): 81 fL | RBC count (day 29): 5.3e+06 µL⁻¹ | WBC count (day 29): 11000 µL⁻¹ | hematocrit (day 29): 43% | hemoglobin (day 29): 12.4 g/dL | basophils (day 36): 0.4% | eosinophils (day 36): 0.5% | lymphocytes (day 36): 57% | monocytes (day 36): 2.5% | neutrophils (day 36): 39% | platelet count (day 36): 370000 µL⁻¹ | reticulocytes (day 36): 1.6% | MCH (day 36): 23 pg | MCHC (day 36): 30 g/dL | MCV (day 36): 78 fL | RBC count (day 36): 5.5e+06 µL⁻¹ | WBC count (day 36): 10000 µL⁻¹ | hematocrit (day 36): 43% | hemoglobin (day 36): 12.8 g/dL | basophils (day 43): 0.4% | eosinophils (day 43): 0.6% | lymphocytes (day 43): 65% | monocytes (day 43): 3.3% | neutrophils (day 43): 30% | platelet count (day 43): 365000 µL⁻¹ | reticulocytes (day 43): 1.2% | MCH (day 43): 23 pg | MCHC (day 43): 30 g/dL | MCV (day 43): 78 fL | RBC count (day 43): 5.6e+06 µL⁻¹ | WBC count (day 43): 10000 µL⁻¹ | hematocrit (day 43): 43% | hemoglobin (day 43): 12.7 g/dL | basophils (day 50): 0.3% | eosinophils (day 50): 0.8% | lymphocytes (day 50): 64% | monocytes (day 50): 3.2% | neutrophils (day 50): 31% | platelet count (day 50): 372000 µL⁻¹ | reticulocytes (day 50): 1.6% | MCH (day 50): 23 pg | MCHC (day 50): 28 g/dL | MCV (day 50): 80 fL | RBC count (day 50): 5.5e+06 µL⁻¹ | WBC count (day 50): 11000 µL⁻¹ | hematocrit (day 50): 44% | hemoglobin (day 50): 12.3 g/dL | basophils (day 57): 0.3% | eosinophils (day 57): 0.6% | lymphocytes (day 57): 63% | monocytes (day 57): 3.2% | neutrophils (day 57): 32% | platelet count (day 57): 371000 µL⁻¹ | reticulocytes (day 57): 1.5% | MCH (day 57): 23 pg | MCHC (day 57): 29 g/dL | MCV (day 57): 79 fL | RBC count (day 57): 5.5e+06 µL⁻¹ | WBC count (day 57): 12000 µL⁻¹ | hematocrit (day 57): 43% | hemoglobin (day 57): 12.6 g/dL | basophils (day 64): 0.4% | eosinophils (day 64): 0.7% | lymphocytes (day 64): 64% | monocytes (day 64): 3.5% | neutrophils (day 64): 30% | platelet count (day 64): 358000 µL⁻¹ | reticulocytes (day 64): 1.3% | MCHC (day 64): 29 g/dL | MCV (day 64): 79 fL | RBC count (day 64): 5.6e+06 µL⁻¹ | WBC count (day 64): 13000 µL⁻¹ | hematocrit (day 64): 44% | hemoglobin (day 64): 12.6 g/dL | basophils (day 71): 0.5% | eosinophils (day 71): 0.8% | lymphocytes (day 71): 65% | monocytes (day 71): 4.3% | neutrophils (day 71): 28% | platelet count (day 71): 365000 µL⁻¹ | reticulocytes (day 71): 1.3% | MCHC (day 71): 29 g/dL | MCV (day 71): 80 fL | RBC count (day 71): 5.5e+06 µL⁻¹ | WBC count (day 71): 15000 µL⁻¹ | hematocrit (day 71): 44% | hemoglobin (day 71): 12.7 g/dL | basophils (day 78): 0.4% | eosinophils (day 78): 0.9% | lymphocytes (day 78): 60% | monocytes (day 78): 3.6% | neutrophils (day 78): 35% | platelet count (day 78): 348000 µL⁻¹ | reticulocytes (day 78): 1.4% | MCHC (day 78): 30 g/dL | MCV (day 78): 76 fL | RBC count (day 78): 5.4e+06 µL⁻¹ | WBC count (day 78): 11000 µL⁻¹ | hematocrit (day 78): 41% | hemoglobin (day 78): 12.5 g/dL | basophils (day 85): 0.3% | eosinophils (day 85): 1.5% | lymphocytes (day 85): 72% | monocytes (day 85): 3.7% | neutrophils (day 85): 22% | platelet count (day 85): 344000 µL⁻¹ | reticulocytes (day 85): 1.5% | MCHC (day 85): 30 g/dL | MCV (day 85): 77 fL | RBC count (day 85): 5.5e+06 µL⁻¹ | WBC count (day 85): 12000 µL⁻¹ | hematocrit (day 85): 42% | hemoglobin (day 85): 12.4 g/dL | basophils (day −5): 0.3% | eosinophils (day −5): 0.6% | lymphocytes (day −5): 59% | monocytes (day −5): 3.6% | neutrophils (day −5): 35% | platelet count (day −5): 425000 µL⁻¹ | reticulocytes (day −5): 0.9% | MCH (day −5): 23 pg | MCHC (day −5): 31 g/dL | MCV (day −5): 76 fL | RBC count (day −5): 5.6e+06 µL⁻¹ | WBC count (day −5): 12000 µL⁻¹ | hematocrit (day −5): 42% | hemoglobin (day −5): 13.1 g/dL | basophils (day −14): 0.2% | eosinophils (day −14): 0.6% | lymphocytes (day −14): 59% | monocytes (day −14): 3.1% | neutrophils (day −14): 36% | platelet count (day −14): 377000 µL⁻¹ | reticulocytes (day −14): 1.0% | MCH (day −14): 23 pg | MCHC (day −14): 30 g/dL | MCV (day −14): 77 fL | RBC count (day −14): 5.6e+06 µL⁻¹ | WBC count (day −14): 12000 µL⁻¹ | hematocrit (day −14): 42% | hemoglobin (day −14): 12.9 g/dL
